From paper PMC11504489, “Potent Biological Activity of Fluorinated Derivatives of 2-Deoxy-D-Glucose in a Glioblastoma Model” (Biomedicines, 2024)

Target: T1, hexokinase II (HKII) (Homo sapiens, UniProt P52789)
T1 construct: gene HK2; recombinant HKII expressed in E. coli, first 16 aa from the N-terminal removed
T1 sequence (P52789 17-917): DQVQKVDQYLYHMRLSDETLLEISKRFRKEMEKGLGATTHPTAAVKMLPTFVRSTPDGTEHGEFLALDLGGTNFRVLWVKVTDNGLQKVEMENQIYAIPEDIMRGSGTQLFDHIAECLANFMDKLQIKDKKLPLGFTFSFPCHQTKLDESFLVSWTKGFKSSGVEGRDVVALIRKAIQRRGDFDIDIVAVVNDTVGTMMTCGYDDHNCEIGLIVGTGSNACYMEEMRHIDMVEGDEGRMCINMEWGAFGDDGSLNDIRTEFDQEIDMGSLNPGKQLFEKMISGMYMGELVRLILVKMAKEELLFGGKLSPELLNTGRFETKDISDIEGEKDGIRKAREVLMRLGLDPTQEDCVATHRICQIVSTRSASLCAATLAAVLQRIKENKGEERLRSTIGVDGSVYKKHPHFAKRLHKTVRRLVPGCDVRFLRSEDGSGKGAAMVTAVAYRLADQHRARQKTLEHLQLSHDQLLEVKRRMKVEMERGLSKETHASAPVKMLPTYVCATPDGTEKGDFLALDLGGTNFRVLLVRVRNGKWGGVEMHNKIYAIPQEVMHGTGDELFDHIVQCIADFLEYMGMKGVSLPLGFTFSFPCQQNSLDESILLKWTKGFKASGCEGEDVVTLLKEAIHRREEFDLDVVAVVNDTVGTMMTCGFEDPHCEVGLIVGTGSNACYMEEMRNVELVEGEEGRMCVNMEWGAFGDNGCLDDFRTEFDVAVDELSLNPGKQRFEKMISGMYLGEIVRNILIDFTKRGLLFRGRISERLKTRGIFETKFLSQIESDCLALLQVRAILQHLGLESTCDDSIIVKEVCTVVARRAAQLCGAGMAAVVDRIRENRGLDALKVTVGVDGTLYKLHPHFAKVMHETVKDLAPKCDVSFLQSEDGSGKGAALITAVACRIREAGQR
Assay: […] NMR CPMG transverse relaxation titration
Assay type: binding
Conditions: read-out: Kα [mol m^-3]

Kd: 960 ± 200 µM
Compound: OC[C@H]1OC(O)C(F)(F)[C@@H](O)[C@@H]1O (mixture of isomers) [2,2-diFG, 2-deoxy-2,2-difluoro-D-glucopyranose]
